Paper PMC6240096, “A hPSC-based platform to discover gene-environment interactions that impact human β-cell and dopamine neuron survival” (Nature Communications, 2018)

Key:
INS-GFP+ cells = experiment: RNA-seq of INS-GFP+ cells; type: cell-based, human; details: 1.6 µM propargite-treated INS-GFP+ cells
From the text: The INS-GFP^+ cells were sorted and RNA from the sorted cells was extracted with Absolutely RNA Nanoprep kit (Agilent Technologies, 400753). The RNA quality was validated with a bioanalyzer (Agilent). The cDNA libraries were synthesized using the TruSeq RNA Sample Preparation kit (Illumina) and sequenced in single-read with the HiSeq2000/1000 sequencer (Illumina) at Weill Cornell Genomics Resources Core Facility. The reads were aligned to the human hg19 reference genome with Tophat2[48]. Gene expression data were analyzed with Cufflinks[49]. To generate heat maps displaying the differential gene expression patterns of different samples, the RPKM values were normalized per gene over all samples. The heat maps were then generated by Heatmap.2 in the R plots package. David functional annotation tool[50] was used for gene ontology analysis and Ingenuity Pathway Analysis tool was used for pathway analysis.

mouse pancreatic β-cells = experiment: CD-1 mice treated by intraperitoneal injection for 5 days; type: in vivo
Experimental: All animal work has been approved by IACUC committee of Weill Cornell Medical College. CD-1 adult male mice were treated with different doses of propargite or vehicle (corn oil) through intraperitoneal injection for 5 days. Fasting blood glucose level were monitored every day using Abbott FreeStyle Lite blood glucose monitoring system. Then, CD-1 adult male mice were treated with 12 mg/kg propargite or vehicle (corn oil) through intraperitoneal injection for 5 days. Fasting blood was collected via tail nicking following 14–16 h of fasting with ad libitum access to drinking water. Serum mouse insulin levels were assessed by ELISA (80-INSMR-CH01, Alpco). Mice were then killed. The pancreases were embedded in OCT. The tissue was then sectioned at 5 μm for immunohistochemistry staining analysis of DNA damage marker γ-H2A.X and β-cell marker INS.

MIN6 cells = experiment: Ki67 proliferation staining of MIN6 cells; type: cell-based, mouse; details: 1.6 μM propargite vs DMSO, 4 days
Experimental: Cells were fixed with 10% (v/v) formalin for 20 min at room temperature (RT) and blocked in a solution of Mg^2+- and Ca^2+-free PBS containing 5% horse serum and 0.3% Triton-X for 1 h at room temperature and followed by incubation with primary antibody at 4 °C overnight. The following primary antibodies and dilutions have been used in this study: goat anti-SOX17 (1:500, R&D system, AF1924), rabbit anti-FOXA2 (1:500, Upstate, 07-633), goat anti-PDX1 (1:500, R&D system, AF2419), mouse anti-NKX6.1 (1:100; BCBC, Ab2024), guinea pig anti-INS (1:1000, Dako, A0564), guinea pig anti-GLUCAGON (1:500, Linco, 4031), mouse anti-Ki67 (1:100, Life technologies, 556003), mouse anti-AMYLASE (1:100, Santa Cruz, sc-46657), rabbit anti-Active Caspase-3 (1:500, BD Bioscience, 559565), mouse anti-Troponin T (1:500, Thermo Scientific, MA5-12960), mouse anti-Actin, Cardiac (1:300, Sigma, A9357), rabbit anti-TUJ1 (1:500, Covance, MRB-435P), Chicken anti-MAP2 (1:1000, Abcam, Ab5392), mouse anti-HuC/D (1:500, Invitrogen, A-21271), mouse anti-MAP2 (1:1500, Sigma, M1406), rabbit anti-TH (1:500, Pel freeze, P40101-0), rat-anti-CTIP2 (1:500, Abcam, ab18465), goat anti-FOXA2 (1:200, R&D, 463783). Donkey anti-guinea pig, mouse, goat, rabbit or chicken secondary antibodies conjugated with Alexa-Fluor-488, Alexa-Fluor-594 or Alexa-Fluor-647 fluorophore (1:500, Life technologies) were used. […]

[1] = 12 mg/kg daily for 5 days, intraperitoneal, CD-1 mice

2-(4-tert-butylphenoxy)-cyclohexyl prop-2-yne-1-sulfonate [propargite]
fold-change of upregulated DNA damage genes (DDIT3, GADD45A) (INS-GFP+ cells): > 3 | blood glucose level (mouse pancreatic β-cells; [1]): lightly increased | body weight (mouse pancreatic β-cells; [1]): without significantly affecting | insulin levels in the plasma of fasted mice (mouse pancreatic β-cells; [1]): significant reduction | percentage of γ-H2AX+/INS+ in INS+ cells (DNA damage) (mouse pancreatic β-cells; 12 mg/kg, mouse pancreas): significant increase | percentage of Ki67+/INS+ cells (MIN6 cells): No significant difference
